Test results reported in patent US8232269B2, “Amide compounds useful in therapy” (Pfizer Inc., priority 2008, dated 2012).
pKi: −log10 of the molar value.

Biological target: T1, Progesterone Receptor (PR) (Homo sapiens, UniProt P06401)
T1 construct: endogenous in cells; host or cells: T47D human breast mammary carcinoma cells
T1 sequence (P06401 1-933): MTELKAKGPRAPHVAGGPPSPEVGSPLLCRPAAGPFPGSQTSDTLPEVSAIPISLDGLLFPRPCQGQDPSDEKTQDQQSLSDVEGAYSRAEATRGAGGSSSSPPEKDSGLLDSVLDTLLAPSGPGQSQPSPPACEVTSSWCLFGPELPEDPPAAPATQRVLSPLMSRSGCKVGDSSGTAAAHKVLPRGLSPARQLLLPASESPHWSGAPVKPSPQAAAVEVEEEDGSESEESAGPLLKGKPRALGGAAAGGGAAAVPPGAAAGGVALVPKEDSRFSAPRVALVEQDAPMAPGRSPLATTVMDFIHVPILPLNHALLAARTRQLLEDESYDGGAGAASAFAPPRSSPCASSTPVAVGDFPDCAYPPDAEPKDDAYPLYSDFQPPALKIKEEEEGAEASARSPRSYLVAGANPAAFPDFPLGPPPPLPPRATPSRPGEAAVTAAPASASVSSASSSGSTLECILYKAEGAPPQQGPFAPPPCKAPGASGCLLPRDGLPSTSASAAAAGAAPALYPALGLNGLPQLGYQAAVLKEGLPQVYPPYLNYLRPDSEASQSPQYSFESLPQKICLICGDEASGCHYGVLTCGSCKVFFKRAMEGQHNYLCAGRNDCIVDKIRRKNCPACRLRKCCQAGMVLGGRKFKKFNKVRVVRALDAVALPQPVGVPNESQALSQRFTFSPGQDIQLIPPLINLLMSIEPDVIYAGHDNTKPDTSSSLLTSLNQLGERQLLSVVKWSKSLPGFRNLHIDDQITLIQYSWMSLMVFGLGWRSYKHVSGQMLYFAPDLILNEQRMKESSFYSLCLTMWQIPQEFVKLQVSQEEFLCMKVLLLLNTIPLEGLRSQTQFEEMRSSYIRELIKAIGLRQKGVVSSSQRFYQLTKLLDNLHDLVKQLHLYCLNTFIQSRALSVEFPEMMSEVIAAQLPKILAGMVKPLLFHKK
Assay: In vitro functional assay for progesterone receptor (PR) antagonists: inhibition of progesterone-induced alkaline phosphatase expression in T47D cells
Assay type: cell-based
Conditions: antagonist format, 5 nM progesterone, Ki calculated from IC50 with the Cheng-Prusoff equation
From the text: 1.0 In vitro Functional Assay for Progesterone Receptor (PR) Antagonists, Agonists and Modulators
The assay for PR antagonism takes advantage of the extensively reported modulation of alkaline phosphatase (AP) expression in human breast T47D mammary carcinoma cells {Beck et al., D. P. (1993). The progesterone antagonist RU486 acquires agonist activity upon stimulation of cAMP signalling pathways. Proc Natl Acad Sci USA 90, 4441-4445; Fensome et al. (2002). New progesterone receptor antagonists: 3,3-disubstituted-5-aryloxindoles. Bioorg Med Chem Lett 12, 3487-3490; Zhang et al., (2002a). 6-Aryl-1,4-dihydro-benzo d1,3oxazin-2-ones: a novel class of potent, selective, and orally active nonsteroidal progesterone receptor antagonists. Journal of Medicinal Chemistry 45, 4379-4382; Zhang et al., (2003). Novel 6-aryl-1,4-dihydrobenzo d oxazine-2-thiones as potent, selective, and orally active nonsteroidal progesterone receptor agonists. Bioorganic & Medicinal Chemistry Letters 13, 1313-1316; Zhang et al., (2002b). Potent nonsteroidal progesterone receptor agonists: synthesis and SAR study of 6-aryl benzoxazines. Bioorganic & Medicinal Chemistry Letters 12, 787-790; Zhang, Z. et al., (2000). In vitro characterization of trimegestone: a new potent and selective progestin. Steroids 65, 637-643}. […] In the absence of progesterone any agonist activity is also observed as an induction of AP activity. By running the assay in two formats (+/−progesterone (P4)), compounds behaving as PR antagonists, agonists, partial agonists or modulators with mixed agonist/antagonist activity can be identified.
Briefly, T47D cells are grown by propagating in DMEM with phenol red+10% FCS+2 mM Glutamine at 37° C./5% CO2. At 70-80% confluence, the media is exchanged for phenol red free DMEM+5% CS-FCS (Assay media). Cells are incubated overnight in assay media then harvested and frozen in assay media containing 10% DMSO at 1.5e7 cells/mL in 2 mL aliquots using a Planer and immediately stored in liquid nitrogen. Vials are removed from liquid nitrogen storage and immediately thawed in a water bath at 37° C. The cell suspension is added dropwise to 20 mL of assay media, then the tube centrifuged at 1000 rpm for 4 minutes, the supernatant is discarded and the pellet re-suspended in 20 mL assay media. T47D cells are then plated at 8750 cells/well in 35 μL assay media in sufficient white solid 384 well TC plates for the assay. For the agonist format assay a further 10 μL of assay media is added to each well. These plates are then cultured for 3-6 hours at 37° C./5% CO2 before compound addition.
Test substances are prepared by in 100% DMSO, half log concentrations from 4 mM in 384 well plates 5 μL/well (referred to here as ‘grandmother plates’). Progesterone is 100 μM made up in ethanol and PBS (i.e. add 1 mL ethanol to progesterone initially to help dissolving) and stored in 0.5-1 mL aliquots at −20° C.
Using a multidrop (Thermolabsystems), 60 μL/well of buffer is added to a 384 well plate—this will be the ‘mother plate’. _Add 45 μL well buffer to grandmother plate using the multidrop (=400 μM 10% DMSO dilution). Mixed and spun to remove air bubbles. • 20 μL is taken from the grandmother plate (400 μM 10% DMSO) and added to the mother plate (=100 μM 2.5% DMSO). Mixed and spun to remove air bubbles Preparation of Max/Min:
Antagonist Min: (Checker Pattern on Plate Map) 1 μM RU-486 (FAC 0.1 μM) • 50 μL of 0.2 mM RU-486 • 10 mL Diluent Addition of Test Substance to Cell Plates • The PlateMate Plus was used to add 5 μL MAX/MIN to cell plates • Then 5 μL test substances are added from the mother plate (after removing max/min PlateMate tips: columns 1 and 24)
Addition of Agonist (5 nM Progesterone FAC) for Antagonist Format Only
25 nM progesterone in assay media is prepared from 100 μM stock (12.5 μL progesterone/50 mL media), from which 10 μL per well is transferred to the assay plate using the PlateMate Plus (already containing cells & compound). […]

| SMILES | pKi |
| --- | --- |
| Cc1cc(-c2nn(C(C)C)c(C(=O)NC[C@H](C)O)c2C#N)ccc1C#N [Example 124] | 8.23 |
| Cc1c(-c2ccc(C#N)cc2)nn(C2CCOC2)c1C(=O)NC(C)C (single isomer, unassigned) [Example 77 Ent 1, 3-(4-Cyanophenyl)-N-isopropyl-4-methyl-1-(tetrahydrofuran-3-yl)-1H-pyrazole-5-carboxamide] | 7.16 |
| CC(C)n1nc(-c2ccc(C#N)cc2)c(C2CC2)c1C(=O)NCc1ccncn1 [Example 23, 3-(4-Cyanophenyl)-4-cyclopropyl-1-isopropyl-N-(pyrimidin-4-ylmethyl)-1H-pyrazole-5-carboxamide] | 7.99 |
| CNC(=O)CNC(=O)c1c(C2CC2)c(-c2ccc(C#N)c(C)c2)nn1C(C)C [Example 120, 3-(4-Cyano-3-methylphenyl)-4-cyclopropyl-1-isopropyl-N-[2-(methylamino)-2-oxoethyl]-1H-pyrazole-5-carboxamide] | 8.06 |
| CNC(=O)c1c(C2CC2)c(-c2ccc(C#N)cc2)nn1C(C)C [Example 46, 3-(4-Cyanophenyl)-4-cyclopropyl-1-isopropyl-N-methyl-1H-pyrazole-5-carboxamide] | < 5.70 |
| CC(C)n1nc(-c2ccc(C#N)cc2)c(C2CC2)c1C(=O)NCC(F)(F)F [Example 48, 3-(4-Cyanophenyl)-4-cyclopropyl-1-isopropyl-N-(2,2,2-trifluoroethyl)-1H-pyrazole-5-carboxamide] | 8.28 |
| CCc1c(-c2ccc(C#N)cc2)nn(C(C)CC)c1C(=O)NCC(C)(C)O (stereo not shown) [Example 130] | 7.83 |
| Cc1cc(-c2nn(C(C)C)c(C(=O)NC[C@@H](C)O)c2C#N)ccc1C#N [Example 128] | 7.92 |
| CNC(=O)CNC(=O)c1c(C)c(-c2ccc(C#N)c(C)c2)nn1C(C)C [Example 113, 3-(4-Cyano-3-methylphenyl)-1-isopropyl-4-methyl-N-[2-(methylamino)-2-oxoethyl]-1H-pyrazole-5-carboxamide] | 7.57 |
| CCNC(=O)CNC(=O)c1c(C2CC2)c(-c2ccc(C#N)cc2)nn1C(C)C [Example 42, 3-(4-Cyanophenyl)-4-cyclopropyl-N-[2-(ethylamino)-2-oxoethyl]-1-isopropyl-1H-pyrazole-5-carboxamide] | 7.56 |
| CC(C)n1nc(-c2ccc(C#N)cc2)c(C2CC2)c1C(=O)NC[C@@H]1CCCO1 [Example 55, 3-(4-Cyanophenyl)-4-cyclopropyl-1-isopropyl-N-[(2S)-tetrahydrofuran-2-ylmethyl]-1H-pyrazole-5-carboxamide] | 7.86 |
| Cc1c(-c2ccc(C#N)cc2)nn(C2CCOC2)c1C(=O)NC[C@H](C)O (single isomer, unassigned) [Example 78 Diast 2] | 7.31 |
| CCc1c(-c2ccc(C#N)cc2)nn(C(C)C)c1C(=O)NCC(=O)NC [Example 119, 3-(4-Cyanophenyl)-4-ethyl-1-isopropyl-N-[2-(methylamino)-2-oxoethyl]-1H-pyrazole-5-carboxamide] | < 6.84 |
| CC(C)n1nc(-c2ccc(C#N)cc2)c(C2CC2)c1C(=O)NC1CN(C(=O)OC(C)(C)C)C1 [Example 7, tert-Butyl 3-({[3-(4-cyanophenyl)-4-cyclopropyl-1-isopropyl-1H-pyrazol-5-yl]carbonyl}amino)azetidine-1-carboxylate] | 8.01 |
| CC(C)n1nc(-c2ccc(C#N)cc2)c(C#N)c1C(=O)NC[C@@H](C)O [Example 133] | 7.71 |
| CC(C)n1nc(-c2ccc(C#N)cc2)c(C2CC2)c1C(=O)NC1CCC(=O)N(C)C1 (racemic) [Example 41, (+/−)-3-(4-Cyanophenyl)-4-cyclopropyl-1-isopropyl-N-(1-methyl-6-oxopiperidin-3-yl)-1H-pyrazole-5-carboxamide] | 7.60 |
| CCNC(=O)c1c(C)c(-c2ccc(C#N)cc2)nn1C1CCOC1 (single isomer, unassigned) [Example 76 Ent 2, 3-(4-Cyanophenyl)-N-ethyl-4-methyl-1-(tetrahydrofuran-3-yl)-1H-pyrazole-5-carboxamide] | 6.83 |
| CCc1c(-c2ccc(C#N)cc2)nn(C(C)C)c1C(=O)NCC1CC1 [Example 110, 3-(4-Cyanophenyl)-N-(cyclopropylmethyl)-4-ethyl-1-isopropyl-1H-pyrazole-5-carboxamide] | 8.08 |
| CNC(=O)c1c(C)c(-c2ccc(C#N)cc2)nn1C1CCC1 [Example 70, 3-(4-Cyanophenyl)-1-cyclobutyl-N,4-dimethyl-1H-pyrazole-5-carboxamide] | 8.26 |
| CCNC(=O)c1c(C)c(-c2ccc(C#N)cc2)nn1C1CCOC1 (single isomer, unassigned) [Example 76 Ent 1, 3-(4-Cyanophenyl)-N-ethyl-4-methyl-1-(tetrahydrofuran-3-yl)-1H-pyrazole-5-carboxamide] | 7.65 |
| Cc1cc(-c2nn(C(C)C)c(C(=O)NC(C)C)c2C)ccc1C#N [Example 66, 3-(4-Cyano-3-methylphenyl)-N,1-diisopropyl-4-methyl-1H-pyrazole-5-carboxamide] | 8.45 |
| Cc1c(-c2ccc(C#N)cc2)nn(C2CCOC2)c1C(=O)NC[C@H](C)O (mixture of isomers) [Example 78, 3-(4-Cyanophenyl)-N-[(2S)-2-hydroxypropyl]-4-methyl-1-(tetrahydrofuran-3-yl)-1H-pyrazole-5-carboxamide] | 7.15 |
| Cc1c(-c2ccc(C#N)cc2)nn(C2CCC2)c1C(=O)NCC1CC1 [Example 69, 3-(4-Cyanophenyl)-1-cyclobutyl-N-(cyclopropylmethyl)-4-methyl-1H-pyrazole-5-carboxamide] | 8.47 |
| CNC(=O)c1c(C)c(-c2ccc(C#N)cc2)nn1C1CC1 [Example 81, 3-(4-Cyanophenyl)-1-cyclopropyl-N,4-dimethyl-1H-pyrazole-5-carboxamide] | 7.21 |
| CC(C)n1nc(-c2ccc(C#N)cc2)c(C2CC2)c1C(=O)N[C@H]1C[C@@H](O)C1 [Example 32, 3-(4-Cyanophenyl)-4-cyclopropyl-N-(cis-3-hydroxycyclobutyl)-1-isopropyl-1H-pyrazole-5-carboxamide] | 7.46 |
